Measurements published in ChEMBL document CHEMBL4038282 (Eur J Med Chem, 2017).
≈ marks a conversion by molar mass, not a printed value.

Columns and labels:
MDA-MB-231 [1] = assay: Antiproliferative activity against human MDA-MB-231 cells up to 72 hrs by MTT assay; type: functional, cell-based; settings: MDA-MB-231, 72 h
MDA-MB-231 [2] = assay: Potency index, ratio of curcumin IC50 to compound IC50 for human MDA-MB-231 cells; type: functional
HCT-116 = assay: Antiproliferative activity against human HCT116 cells up to 72 hrs by MTT assay; type: functional, cell-based; settings: HCT-116, 72 h
PC-3 = assay: Antiproliferative activity against human PC3 cells up to 72 hrs by MTT assay; type: functional, cell-based; settings: PC-3, 72 h
T47D = assay: Antiproliferative activity against ER/PR positive human T47D cells after 24 hrs by MTT assay; type: functional, cell-based
MCF7 = assay: Antiproliferative activity against ER/PR positive human MCF7 cells after 24 hrs by MTT assay; type: functional, cell-based; settings: MCF7, 24 h
MDA-MB-453 = assay: Antiproliferative activity against HER2 positive human MDA-MB-453 cells after 24 hrs by MTT assay; type: functional, cell-based; settings: MDA-MB-453, 24 h
MDA-MB-157 = assay: Antiproliferative activity against human MDA-MB-157 cells after 24 hrs by MTT assay; type: functional, cell-based; settings: MDA-MB-157, 24 h
BT-474 = assay: Antiproliferative activity against HER2 positive human BT474 cells after 24 hrs by MTT assay; type: functional, cell-based; settings: BT-474, 24 h
SK-BR-3 = assay: Antiproliferative activity against HER2 positive human SKBR3 cells after 24 hrs by MTT assay; type: functional, cell-based; settings: SK-BR-3, 24 h
MDA-MB-468 [3] = assay: Antiproliferative activity against human MDA-MB-468 cells after 24 hrs by MTT assay; type: functional, cell-based; settings: MDA-MB-468, 24 h
Hs-578T = assay: Antiproliferative activity against human Hs578T cells after 24 hrs by MTT assay; type: functional, cell-based
MDA-MB-468 [4] = assay: Antiproliferative activity against doxorubicin-resistant human MDA-MB-468 cells after 24 hrs by MTT assay; type: functional, cell-based; settings: MDA-MB-468, 24 h
Mus musculus [5] = assay: Toxicity in nu/nu mouse assessed as changes in body weight at 100 mg/kg, po administered once daily for 32 days measured every 4 days during compound dosing; type: organism-based; settings: in vivo
Mus musculus [6] = assay: Toxicity in nu/nu mouse assessed as effect on food consumption at 100 mg/kg, po administered once daily for 32 days measured during compound dosing; type: organism-based; settings: in vivo, 768 h
Mus musculus [7] = assay: Toxicity in nu/nu mouse assessed as behavioral changes at 100 mg/kg, po administered once daily for 32 days measured during compound dosing; type: organism-based; settings: in vivo, 768 h
[8] = Solubility of the compound in water after 24 hrs by shake-flask method; type: physicochemical
[9] = Solubility of the compound in ethanol after 24 hrs by shake-flask method; type: physicochemical; settings: 24 h
MDA-MB-468 [10] = assay: Potency index, ratio of curcumin IC50 to compound IC50 for doxorubicin-resistant human MDA-MB-468 cells; type: functional
Mus musculus [11] = assay: Acute-toxicity in nu/nu mouse assessed as changes in body weight at 500 mg/kg, po administered once daily for 5 days measured for 21 days; type: organism-based; settings: in vivo, 504 h
Mus musculus [12] = assay: Acute-toxicity in nu/nu mouse assessed as behavioral changes at 500 mg/kg, po administered once daily for 5 days measured for 21 days; type: organism-based; settings: in vivo, 504 h
MDA-MB-231 [13] = assay: Anti-tumor activity against human MDA-MB-231 cells xenografted in nu/nu mouse assessed as reduction in tumor weight at 1 mg/kg, ip administered once daily for 32 days; type: functional; set-up: scale not given: the % may be the effect or the level left
Mus musculus [14] = assay: Toxicity in nu/nu mouse assessed as behavioral changes at 1 mg/kg, ip administered once daily for 32 days; type: organism-based; settings: in vivo, 768 h
Mus musculus [15] = assay: Toxicity in nu/nu mouse assessed as change in body weight at 1 mg/kg, ip administered once daily for 32 days; type: organism-based; settings: in vivo, 768 h
Mus musculus [16] = assay: Toxicity in nu/nu mouse assessed as hematological changes at 1 mg/kg, ip administered once daily for 32 days; type: organism-based; settings: in vivo, 768 h

SMILES: CCC(CC)(C(=O)/C=C/c1ccc(OC(=O)C(C)(CO)CO)c(OC)c1)C(=O)/C=C/c1ccc(OC(=O)C(C)(CO)CO)c(OC)c1
- IC50 (MDA-MB-231 [1]): 1780 nM
- Ratio IC50 (MDA-MB-231 [2]): 2.4 - 12.2
- IC50 (HCT-116): 1.74 µM
- IC50 (PC-3): 2.16 µM

SMILES: CC(CO)(CO)C(=O)Oc1ccc(/C=C/C(=O)/C=C(O)/C=C/c2ccc(O)cc2)cc1
- IC50 (MDA-MB-231 [1]): 1330 nM
- Ratio IC50 (MDA-MB-231 [2]): 12
- IC50 (PC-3): 5.22 µM

SMILES: COc1ccc(/C=C/C(O)=C/C(=O)/C=C/c2ccc(OC(=O)C(C)(CO)CO)c(OC)c2)cc1OC
- IC50 (MDA-MB-231 [1]): 2550 nM
- Ratio IC50 (MDA-MB-231 [2]): 2.4 - 12.2
- IC50 (HCT-116): 4.77 µM
- IC50 (PC-3): 7.64 µM

SMILES: COc1cc(/C=C/C(=O)CC(=O)/C=C/c2ccc(O)c(OC)c2)ccc1O [CURCUMIN]
- IC50 (MDA-MB-231 [1]): 16200 nM
- IC50 (HCT-116): 13.8 µM
- IC50 (PC-3): 18.8 µM
- IC50 (T47D): 47.9 µM
- IC50 (MCF7): 42.9 µM
- IC50 (MDA-MB-453): 32.4 µM
- IC50 (MDA-MB-157): 40.4 µM
- IC50 (BT-474): 30.1 µM
- IC50 (SK-BR-3): 42.8 µM
- IC50 (MDA-MB-468 [3]): 42.9 µM
- IC50 (Hs-578T): 55.5 µM
- IC50 (MDA-MB-468 [4]): 58.6 µM
- Activity (Mus musculus [5]): Non-Toxic
- Activity (Mus musculus [6]): Non-Toxic
- Activity (Mus musculus [7]): Non-Toxic
- solubility thermodynamic at 24 h [8]: 0.6 µg/mL (≈ 1.63 µM)
- solubility [9]: 1.86 mg/mL (≈ 5050 µM)

SMILES: CCC(CO)(CO)C(=O)Oc1ccc(/C=C/C(=O)/C=C(O)/C=C/c2ccc(O)c(OC)c2)cc1OC
- IC50 (MDA-MB-231 [1]): 4660 nM
- Ratio IC50 (MDA-MB-231 [2]): 2.4 - 12.2
- IC50 (HCT-116): 11.4 µM
- IC50 (PC-3): 12.5 µM

SMILES: COc1cc(/C=C/C(=O)C(C)(C)C(=O)/C=C/c2ccc(OC(=O)C(C)(CO)CO)c(OC)c2)ccc1OC(=O)C(C)(CO)CO
- IC50 (MDA-MB-231 [1]): 1980 nM
- Ratio IC50 (MDA-MB-231 [2]): 2.4 - 12.2
- IC50 (HCT-116): 1.65 µM
- IC50 (PC-3): 1.76 µM
- IC50 (MDA-MB-468 [4]): 5.71 µM
- Ratio IC50 (MDA-MB-468 [10]): 10
- Activity (Mus musculus [11]): Non-Toxic
- Activity (Mus musculus [12]): Non-Toxic

SMILES: COc1cccc2c1C(=O)c1c(O)c3c(c(O)c1C2=O)C[C@@](O)(C(=O)CO)C[C@@H]3O[C@H]1C[C@H](N)[C@H](O)[C@H](C)O1 [DOXORUBICIN]
- Activity (MDA-MB-231 [13]): 60%
- Activity (Mus musculus [14]): Non-Toxic
- Activity (Mus musculus [15]): Non-Toxic
- Activity (Mus musculus [16]): Non-Toxic

SMILES: CCC(CO)(CO)C(=O)Oc1ccc(/C=C/C(=O)/C=C(O)/C=C/c2ccc(OC(=O)C(CC)(CO)CO)c(OC)c2)cc1OC
- IC50 (MDA-MB-231 [1]): 2000 nM
- Ratio IC50 (MDA-MB-231 [2]): 2.4 - 12.2
- IC50 (HCT-116): 1.34 µM
- IC50 (PC-3): 4.21 µM

SMILES: CCC(CO)(CO)C(=O)Oc1cc(/C=C/C(=O)/C=C(O)/C=C/c2ccc(OC)c(O)c2)ccc1OC
- IC50 (MDA-MB-231 [1]): 3850 nM
- Ratio IC50 (MDA-MB-231 [2]): 2.4 - 12.2
- IC50 (HCT-116): 3.64 µM
- IC50 (PC-3): 7.03 µM
